Test [1] relates to DmGPCR7. As to the kind of experiment: FLIPR analysis of intracellular calcium release. The class given is cell-based, Drosophila melanogaster. The following applies: DmGPCR7 in CHO-10001A cells; peptides with C-terminal HSWGa; given in words. The method, then:
(§1) Changes in intracellular calcium levels are another recognized indicator of G protein-coupled receptor activity, and such assays can be employed to screen for modulators of DmGPCR activity. For example, CHO cells stably transfected with a DmGPCR expression vector are plated at a density of 4×10^4 cells/well in Packard black-walled, 96-well plates specially designed to discriminate fluorescence signals emanating from the various wells on the plate. The cells are incubated for 60 minutes at 37° C. in modified Dulbecco's PBS (D-PBS) containing 36 mg/L pyruvate and 1 g/L glucose and one of four calcium indicator dyes (Fluo-3™ AM, Fluo-4™ AM, Calcium Green™-1 AM, or Oregon Green™ 488 BAPTA-1 AM), each at a concentration of 4 μM. Plates are washed once with modified D-PBS and incubated for 10 minutes at 37° C. to remove residual dye from the cellular membrane. In addition, a series of washes with modified D-PBS is performed immediately prior to activation of the calcium response.
A calcium response is initiated by the addition of one or more candidate receptor agonist compounds, calcium ionophore A23187 (10 μM; positive control), or ATP (4 μM; positive control). Fluorescence is measured by Molecular Device's FLIPR with an argon laser (excitation at 488 nm). (See, e.g., Kuntzweiler et al., Drug Dev. Res., 1998, 44(1), 14-20). The F-stop for the detector camera was set at 2.5, and the length of exposure was 0.4 milliseconds. Basal fluorescence of cells was measured for 20 seconds prior to addition of candidate agonist, ATP, or A23187, and the basal fluorescence level was subtracted from the response signal. The calcium signal is measured for approximately 200 seconds, taking readings every two seconds. Calcium ionophore A23187 and ATP increase the calcium signal 200% above baseline levels. In general, activated GPCRs increase the calcium signal approximately 10-15% above baseline signal.
(§2) Originally, we have chosen the GTPγS assay as a functional assay because agonist-driven stimulation of GTPγS reflects early events in the DmGPCR activation cascade, regardless of further activation pathways of various down-stream signaling events. This appears especially useful for the assessment of possible activation of orphan DmGPCRs with unknown functions and unknown signaling pathways. The GTPγS assay was carried out with membranes prepared from CHO cells transiently transfected with DNA encoding Drosophila GPCRs using a 96-well MultiScreen G/FB filter plates and a MultiScreen vacuum manifold (Millipore) for filtration. Since the GTPγS assay is known to poorly recognize GPCRs coupled to the Gq class of G-proteins, a Ca^+2 mobilization assay based on a FLIPR readout was used as well to evaluate Gq-coupled orphan GPCRs in CHO cells transiently transfected with DNA encoding Drosophila GPCRs.
A general note: A change in cytosolic calcium serves as a functional read-out for many receptors and channels.

The target of test [2] is T1, DmGPCR5 (Drosophila melanogaster, UniProt P30975, L70Q). As to the kind of experiment: biochemical. More on the design: expressed in transfected cells; host or cells: CHO-1000A (so in the source), transient. The following applies: for maximal stimulation of GTPγS binding above basal level: DmGPCR5, dose-response. On the procedure:
(§3) The transfected cells were washed once with ice-cold Dulbecco's phosphate buffered saline (PBS), 5 ml per 10 cm plate, and scraped into 5 ml of the same buffer. Cell suspensions from multiple plates were combined and centrifuged at 500×g for 10 min at 4° C. The cell pellet was reconstituted in ice-cold TEE (25 mM TRIS, 5 mM EGTA, 5 mM EDTA). Convenient aliquots were snap-frozen in liquid nitrogen and stored at −70° C. After thawing, the cells were homogenized and centrifuged at 4° C., 500×g for 5 minutes to pellet nuclei and unbroken cells. The supernatant was centrifuged at 47,000×g for 30 minutes at 4° C. The membrane pellet was washed once with TEE, resuspended in 20 mM HEPES, pH 7.4, 100 mM NaCl, 10 mM MgCl2, 1 mM EDTA (assay buffer), aliquoted and frozen in liquid nitrogen. Membrane aliquots were stored at −70° C. Membrane protein concentration was determined using the BCA Protein Assay Reagent from Pierce (Rockford, Ill.) and BSA as standard.
Initially, reaction mixtures were prepared in 96-well polypropylene plates (Nunc). In each well, peptide aqueous solution (20 μl, 10×), or water controls (20 μl), 18.2 μM GDP in assay buffer (0.11 ml, 10 μM final), and membranes suspended in assay buffer (50 μl, 10 μg membrane protein) were mixed and placed on ice. […] Then the membranes were washed 3 times with 0.25 ml ice-cold wash buffer/well (10 mM HEPES, 10 mM MgCl2, pH 7.4) and vacuum filtered. […] Each treatment was carried out in triplicates.
Ligand-induced stimulation of [^35S]GTPγS binding was expressed as fold increase over the basal activity with no ligand added. Each treatment was run either in triplicate, or, on occasion, in duplicate, and the binding (cpm) was calculated as means +/− standard deviations. Dose-response curves for the receptor/ligand systems were analyzed using a non-linear least square SAS model, y=Bmax X/(Kd+X). Other dose-response curves were analyzed using Prism (GraphPad Software, Inc. San Diego, Calif.) and the following equation y=Bottom+(Top−Bottom)/(1+10^LogEC50-X).
as §2
For orientation: Binding of GTPγS marks nucleotide exchange on a G protein.

In test [3] the test system is first Drosophila allatostatin receptor. The following applies: via Gi/Go pathways; cited from earlier work.
Test [4] concerns DmGPCR4. As to the kind of experiment: [35S]GTPγS binding assay, membranes of transfected CHO cells. The class given is biochemical, Drosophila melanogaster. The following applies: given in words. On the procedure:
as §3, with “The membrane pellet was washed once with TEE, resuspended in 20 mM HEPES, pH 7.4, 100 mM NaCl, 10 mM MgCl2, 1 mM EDTA (assay buffer), aliquoted and frozen in liquid nitrogen. Membrane aliquots were stored at −70° C.” left out, “standard. […]” for “standard.”
(§4) Ligand-induced stimulation of [^35S]GTPγS binding was expressed as fold increase over the basal activity with no ligand added. Each treatment was run either in triplicate, or, on occasion, in duplicate, and the binding (cpm) was calculated as means +/− standard deviations. Dose-response curves for the receptor/ligand systems were analyzed using a non-linear least square SAS model, y=Bmax X/(Kd+X). Other dose-response curves were analyzed using Prism (GraphPad Software, Inc. San Diego, Calif.) and the following equation y=Bottom+(Top−Bottom)/(1+10^LogEC50-X). […]

Test [5] deals with DmGPCR8. As to the kind of experiment: [35S]GTPγS binding assay, dose response. The class given is biochemical, Drosophila melanogaster. The following applies: DmGPCR8 in CHO-10001A cells; given in words. The method, then: as §3, with “The membrane pellet was washed once with TEE, resuspended in 20 mM HEPES, pH 7.4, 100 mM NaCl, 10 mM MgCl2, 1 mM EDTA (assay buffer), aliquoted and frozen in liquid nitrogen. Membrane aliquots were stored at −70° C.” left out, “standard. […]” for “standard.”
as §4
Target sequence in this assay (as listed by the source): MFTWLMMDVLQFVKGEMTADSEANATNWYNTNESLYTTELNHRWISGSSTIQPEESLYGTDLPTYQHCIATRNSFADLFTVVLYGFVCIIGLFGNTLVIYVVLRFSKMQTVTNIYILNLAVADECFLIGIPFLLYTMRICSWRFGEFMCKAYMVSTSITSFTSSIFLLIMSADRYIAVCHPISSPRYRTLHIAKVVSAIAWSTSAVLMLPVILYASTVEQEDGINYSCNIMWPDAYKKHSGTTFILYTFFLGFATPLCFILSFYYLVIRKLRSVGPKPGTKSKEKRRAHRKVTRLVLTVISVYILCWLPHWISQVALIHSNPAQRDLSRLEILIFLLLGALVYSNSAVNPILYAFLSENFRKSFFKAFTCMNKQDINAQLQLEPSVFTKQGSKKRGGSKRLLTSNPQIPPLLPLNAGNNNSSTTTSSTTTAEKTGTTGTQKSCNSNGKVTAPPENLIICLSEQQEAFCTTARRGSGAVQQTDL

The test system of test [6] is DmGPCR8. Put plainly: direct calcium mobilization assay (FLIPR). It is filed as cell-based, Drosophila melanogaster. The following applies: DmGPCR8 without chimeric G-protein. The method, then:
as §1, with “Plates are washed once with modified D-PBS and incubated for 10 minutes at 37° C. to remove residual dye from the cellular membrane. In addition, a series of washes with modified D-PBS is performed immediately prior to activation of the calcium response.” left out
A calcium response is initiated by the addition of one or more candidate receptor agonist compounds, calcium ionophore A23187 (10 μM; positive control), or ATP (4 μM; positive control). Fluorescence is measured by Molecular Device's FLIPR with an argon laser (excitation at 488 nm). […] Basal fluorescence of cells was measured for 20 seconds prior to addition of candidate agonist, ATP, or A23187, and the basal fluorescence level was subtracted from the response signal. The calcium signal is measured for approximately 200 seconds, taking readings every two seconds. […]
Target sequence in this assay (as listed by the source): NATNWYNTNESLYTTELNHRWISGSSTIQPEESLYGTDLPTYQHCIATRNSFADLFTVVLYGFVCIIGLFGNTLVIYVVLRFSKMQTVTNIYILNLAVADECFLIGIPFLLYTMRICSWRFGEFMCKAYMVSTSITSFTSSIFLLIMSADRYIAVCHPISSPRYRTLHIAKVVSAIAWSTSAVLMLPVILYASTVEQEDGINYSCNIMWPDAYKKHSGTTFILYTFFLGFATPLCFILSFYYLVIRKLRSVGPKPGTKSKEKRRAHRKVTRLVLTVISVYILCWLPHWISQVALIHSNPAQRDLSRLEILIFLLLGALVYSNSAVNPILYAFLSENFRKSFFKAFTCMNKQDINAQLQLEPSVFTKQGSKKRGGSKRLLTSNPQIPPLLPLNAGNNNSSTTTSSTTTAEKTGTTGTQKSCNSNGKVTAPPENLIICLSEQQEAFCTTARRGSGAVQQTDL

Test [7] deals with T1, DmGPCR5. As to the kind of experiment: cell-based.
Text: The photoprotein luciferase provides another useful tool for assaying for modulators of DmGPCR activity. Cells (e.g., CHO cells or COS7 cells) are transiently co-transfected with both a DmGPCR expression construct (e.g., DmGPCR in pzeoSV2) and a reporter construct which includes a gene for the luciferase protein downstream from a transcription factor binding site, such as the cAMP-response element (CRE), AP-1, or NF-kappa B. Agonist binding to receptors coupled to the Gs subtype of G proteins leads to increases in cAMP, thereby activating the CRE transcription factor and resulting in expression of the luciferase gene. […] Luciferase activity may be quantitatively measured using, e.g., luciferase assay reagents that are commercially available from Promega (Madison, Wis.).
In one exemplary assay, CHO cells are plated in 24-well culture dishes at a density of 100,000 cells/well one day prior to transfection and cultured at 37° C. in MEM (Gibco/BRL) supplemented with 10% fetal bovine serum, 2 mM glutamine, 10 μg/ml penicillin, and 10 μg/ml streptomycin. […] After incubation for 15 minutes at room temperature, 15 μl of the lysate is mixed with 50 μl of substrate solution (Promega) in an opaque-white, 96-well plate, and the luminescence is read immediately on a Wallace model 1450 MicroBeta scintillation and luminescence counter (Wallace Instruments, Gaithersburg, Md.). […]

Non-standard residues stand in square brackets, D forms with d. Residues, ends and D or L forms follow the SMILES beside them. No end group written: not given here. pGlu = O=C1CC[C@@H](C(=O)O)N1

Chain of DmGPCR7 (as listed by the source): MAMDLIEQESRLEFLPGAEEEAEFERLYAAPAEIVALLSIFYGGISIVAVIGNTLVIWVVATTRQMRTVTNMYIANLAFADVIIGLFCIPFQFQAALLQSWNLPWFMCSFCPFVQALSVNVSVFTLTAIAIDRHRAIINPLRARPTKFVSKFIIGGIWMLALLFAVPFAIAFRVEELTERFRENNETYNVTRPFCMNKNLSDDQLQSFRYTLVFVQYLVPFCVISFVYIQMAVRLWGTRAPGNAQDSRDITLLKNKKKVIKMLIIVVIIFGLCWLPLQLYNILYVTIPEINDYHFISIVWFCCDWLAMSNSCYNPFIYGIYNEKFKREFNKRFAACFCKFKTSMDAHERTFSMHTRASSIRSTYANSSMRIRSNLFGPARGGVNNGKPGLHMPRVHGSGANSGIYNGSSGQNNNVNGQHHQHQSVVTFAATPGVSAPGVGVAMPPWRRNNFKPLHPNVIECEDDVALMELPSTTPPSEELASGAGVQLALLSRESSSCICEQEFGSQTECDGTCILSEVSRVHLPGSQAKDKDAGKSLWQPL
T1 sequence (P30975 whole entry L70Q): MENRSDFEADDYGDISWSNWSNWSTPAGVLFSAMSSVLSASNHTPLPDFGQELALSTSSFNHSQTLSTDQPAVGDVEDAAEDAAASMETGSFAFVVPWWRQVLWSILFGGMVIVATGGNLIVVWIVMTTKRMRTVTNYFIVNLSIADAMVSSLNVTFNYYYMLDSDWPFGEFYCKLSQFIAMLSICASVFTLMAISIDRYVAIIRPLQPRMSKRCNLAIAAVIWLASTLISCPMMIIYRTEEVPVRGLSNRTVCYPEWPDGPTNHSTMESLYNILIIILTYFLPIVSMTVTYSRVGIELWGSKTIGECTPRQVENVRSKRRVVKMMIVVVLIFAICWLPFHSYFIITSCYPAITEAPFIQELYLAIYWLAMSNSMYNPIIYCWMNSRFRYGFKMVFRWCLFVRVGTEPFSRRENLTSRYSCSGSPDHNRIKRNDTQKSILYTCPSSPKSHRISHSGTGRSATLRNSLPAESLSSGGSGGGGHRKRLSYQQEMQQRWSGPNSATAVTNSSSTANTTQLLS
Chain of DmGPCR4 (as listed by the source): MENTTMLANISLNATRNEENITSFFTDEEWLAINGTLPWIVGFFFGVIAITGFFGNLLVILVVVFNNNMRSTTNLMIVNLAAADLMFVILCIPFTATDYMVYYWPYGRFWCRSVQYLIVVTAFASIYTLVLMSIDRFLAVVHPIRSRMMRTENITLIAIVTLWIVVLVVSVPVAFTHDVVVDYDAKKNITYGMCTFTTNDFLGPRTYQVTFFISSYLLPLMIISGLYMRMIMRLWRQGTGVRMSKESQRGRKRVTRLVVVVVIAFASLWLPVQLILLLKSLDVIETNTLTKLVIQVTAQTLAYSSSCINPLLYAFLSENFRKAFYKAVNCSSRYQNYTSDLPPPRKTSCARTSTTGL

In the case of pGlu-SSFHSWGa [LK-VI], the “EC50, intracellular calcium release (FLIPR)” value in test [1] was “picomoloar to subnanomolar range”.

One may read the EC50 as the concentration needed to bring the measured effect to its halfway point. High values mean a less potent agent, low ones a more potent agent. With `CSCC[C@H](NC(=O)CNC(=O)[C@@H](NC(=O)[C@H](Cc1ccccc1)NC(=O)CNC(=O)[C@@H](NC(=O)[C@@H]1CCCN1C(=O)[C@H](C)N)[C@@H](C)O)[C@@H](C)O)C(=O)N[C@@H](CCCNC(=N)N)C(N)=O` [DTK-3, APTGFTGMR-NH2] (H-APTGFTGMR-NH2), the half-maximal effective concentration (EC50) in test [2] lay in the range of 250 to 500 nM.

Turning to “SRPYSFGL [drostatin-3, Ser-Arg-Pro-Tyr-Ser-Phe-Gly-Leu-NH2]”, the “functional activation of the receptor” value in test [3] is “functionally activated”. In addition, the “EC50, GTPγS responses” value in test [4] is on record as “low nanomolar range”.

NPFHSWG [Culekinin, NPFHSWGa]: the “EC50, intracellular calcium release (FLIPR)” value in test [1] was “picomoloar to subnanomolar range”.

In the case of “NSVVLGKKQRFHSWGa (NSVVLGKKQRFHSWG-NH2) [DLK-1]”, the “EC50, intracellular calcium release (FLIPR)” value in test [1] was “picomoloar to subnanomolar range”.

Consider “[pGlu]VRFQCYFNPISCF-OH (cysteine pairing not given here) [AST-C]”, for which the “EC50, GTPγS-binding responses” value in test [5] is recorded as “low nanomolar range”. In test [6], the “activity in direct calcium mobilization assay (FLIPR)” value is listed as “did not show any activity”.

Regarding pGlu-RFHSWGa [DLK-2], the “EC50, intracellular calcium release (FLIPR)” value in test [1] is on record as “picomoloar to subnanomolar range”.

Consider `CSCC[C@H](NC(=O)CNC(=O)[C@H](Cc1ccc(O)cc1)NC(=O)[C@H](Cc1ccccc1)NC(=O)[C@H](C)NC(=O)[C@H](CC(C)C)NC(=O)[C@@H]1CCCN1C(=O)[C@H](C)N)C(=O)N[C@@H](CCCNC(=N)N)C(N)=O` [Met8-DTK-2, APLAFYGMR-NH2] (H-APLAFYGMR-NH2), for which the “maximal stimulation of GTPγS binding above basal level” value in test [2] is recorded as “ca. 1.5 fold”.

Take `CSCC[C@H](NC(=O)CNC(=O)[C@H](CC(C)C)NC(=O)[C@H](Cc1ccccc1)NC(=O)CNC(=O)[C@H](CC(N)=O)NC(=O)[C@@H]1CCCN1C(=O)[C@H](C)N)C(=O)N[C@@H](CCCNC(=N)N)C(N)=O` [DTK-5, APNGFLGMR-NH2] (H-APNGFLGMR-NH2): the EC50 in test [7] was found to be 197 nM. In test [2], the EC50 lay within 250 to 500 nM and the “maximal stimulation of GTPγS binding above basal level” value is recorded as “ca. 1.5 fold”.

The values are drawn from patent publication US7364866B2, “Drosophila G protein coupled receptors, nucleic acids, and methods related to the same” (Pharmacia & Upjohn Company, priority 1999, dated 2008).
